The values that follow come from patent US20230130103A1, “TARGETED PHARMACOLOGICAL THERAPEUTICS IN UVEAL MELANOMA” (Washington University, priority 2017, published 2023).

SMILES strings stand for the structures.

The subject of test [1] is 92.1 cells. Briefly: Melanocytic re-differentiation (morphology, pigmentation, immunostaining). The class given is cell-based, Human. Conditions: 7 d GSK503 and 3 d FR. As to the method: FIG. 5A Morphological changes elicited by FR. UM cell lines were treated 3 d with FR and imaged by phase contrast microscopy. FR caused UM cells driven by constitutively active Gαq (92.1 and Mel202) to lose their characteristic spindle shaped and assume a stellate shape with multiple projections. FR had no effect on BRAF-driven UM cells (OCM-1A). FIG. 5B Melanocytic differentiation of FR-treated UM cells indicated by pigmentation. UM cell lines were treated 3 d with FR. Cells were pelleted and examined macroscopically. […] Scale bar=50 μm.
(§1) Gαq-mutant 92.1 UM cells were treated with FR or vehicle, and RNA was collected 1 and 3 d after treatment for RNA-Seq analysis. FIG. 7A Unsupervised principal component analysis identified FR treatment and time in culture as the two main separable factors contributing to changes in gene expression. […] FIG. 7D FR-repressed genes identified as targets of the polycomb repressive complex 2 by Geneset enrichment analysis. FIG. 7E The Ezh1/2 inhibitor GSK503 blocks the morphological differentiation elicited by FR. 92.1 UM cells were treated 7 d with GSK503 and 3 d with FR and then imaged by phase contrast microscopy. […] 92.1 cells were treated 7 d with GSK503 and 3 d with FR and pelleted. FIG. 7G PRC2 inhibition by GSK503.
Cell fixation was carried out by adding an equal volume of 2×fixative (PBS with 4% paraformaldehyde and 0.4% glutaraldehyde) to UM cells in RPMI growth medium. After 15 min at 37° C., cells were permeabilized with 0.1% Triton X-100 in PBS for 5 min, washed with PBS, and blocked with 2% fish gelatin (Sigma-Aldrich) in PBS. Primary and secondary antibodies were diluted in 2% fish gelatin in PBS. Primary antibodies included mouse monoclonal anti-pre-melanosomal protein (One World Lab, San Diego, Calif.), rabbit polyclonal anti-tyrosinase (One World Lab), rabbit polyclonal anti-dopachrome tautomerase (One World Lab), rabbit polyclonal anti-S100 (DakoCytomation, Denmark), and mouse monoclonal anti-BrdU (Life Technologies). Secondary antibodies were Alexa-fluor conjugates (Life Technologies), and the mounting agent was ProLong Gold (Life Technologies). Cell morphology was assessed by phase contrast imaging with an inverted microscope (Olympus IX72) using a 10×objective.

Test [2] relates to 92.1 cells. Briefly: Immunoblot of histone H3 lysine 27 trimethylation (PRC2 inhibition). In kind it is cell-based, Human. The settings on record: 7 d GSK503, FIG. 7G. How it is done: as §1
For standard immunoblots, cells were lysed and cleared in radioimmunoprecipitation assay buffer (150 mM sodium chloride, 1% Triton-X100, 0.5% sodium deoxycholate, 0.1% sodium dodecyl sulfate, 50 mM Tris, pH 8.0) with 1×Complete Protease Inhibitor (Roche, cat.11697498001). Histones were isolated from cells using the Active Motif Histone Purification Mini Kit (cat.40026, Active Motif, Carlsbad, Calif.). Lysates were resolved on 15% SDS-PAGE gels and transferred to Immobilon(P) PVDF membrane (Milipore, cat.IPVH00010). […] Following incubation, membranes were washed at least three times with TBST and signals were detected using LI-COR Odyssey model 9120 imaging system (LI-COR). […]
A general note: Immunoblotting shows a protein as a band on a membrane.

Turning to `Cc1cc(C)c(CNC(=O)c2cc(-c3ccc(N4CCN(C)CC4)nc3)cc3c2c(C)cn3C(C)C)c(=O)[nH]1` [GSK503, reference compound], the “FR-induced re-differentiation (morphology)” value in test [1] (FIG. 7E) is given as “blocked the ability of FR to re-differentiate these cells”. The “pigmentation of FR-treated cells” value in test [1] (FIG. 7F) is given as “decreased pigmentation”. Also, the “histone H3 lysine 27 trimethylation (immunoblot)” value in test [2] was “reduced histone H3 lysine 27 trimethylation”.
